Laboratory results as given in ChEMBL document CHEMBL1909046, “DrugMatrix in vitro pharmacology data”.

Tests used:
[1] = target: T1, Angiotensin-converting enzyme (Oryctolagus cuniculus, UniProt P12822); test: biochemical; format: tissue-based, Lung;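 further: enzymatic inhibition of angiotensin-converting enzyme measured with FAPGG as the substrate; in other assays of this panel Not Active means under 50% inhibition at 10 µM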
T1 sequence (P12822 whole entry): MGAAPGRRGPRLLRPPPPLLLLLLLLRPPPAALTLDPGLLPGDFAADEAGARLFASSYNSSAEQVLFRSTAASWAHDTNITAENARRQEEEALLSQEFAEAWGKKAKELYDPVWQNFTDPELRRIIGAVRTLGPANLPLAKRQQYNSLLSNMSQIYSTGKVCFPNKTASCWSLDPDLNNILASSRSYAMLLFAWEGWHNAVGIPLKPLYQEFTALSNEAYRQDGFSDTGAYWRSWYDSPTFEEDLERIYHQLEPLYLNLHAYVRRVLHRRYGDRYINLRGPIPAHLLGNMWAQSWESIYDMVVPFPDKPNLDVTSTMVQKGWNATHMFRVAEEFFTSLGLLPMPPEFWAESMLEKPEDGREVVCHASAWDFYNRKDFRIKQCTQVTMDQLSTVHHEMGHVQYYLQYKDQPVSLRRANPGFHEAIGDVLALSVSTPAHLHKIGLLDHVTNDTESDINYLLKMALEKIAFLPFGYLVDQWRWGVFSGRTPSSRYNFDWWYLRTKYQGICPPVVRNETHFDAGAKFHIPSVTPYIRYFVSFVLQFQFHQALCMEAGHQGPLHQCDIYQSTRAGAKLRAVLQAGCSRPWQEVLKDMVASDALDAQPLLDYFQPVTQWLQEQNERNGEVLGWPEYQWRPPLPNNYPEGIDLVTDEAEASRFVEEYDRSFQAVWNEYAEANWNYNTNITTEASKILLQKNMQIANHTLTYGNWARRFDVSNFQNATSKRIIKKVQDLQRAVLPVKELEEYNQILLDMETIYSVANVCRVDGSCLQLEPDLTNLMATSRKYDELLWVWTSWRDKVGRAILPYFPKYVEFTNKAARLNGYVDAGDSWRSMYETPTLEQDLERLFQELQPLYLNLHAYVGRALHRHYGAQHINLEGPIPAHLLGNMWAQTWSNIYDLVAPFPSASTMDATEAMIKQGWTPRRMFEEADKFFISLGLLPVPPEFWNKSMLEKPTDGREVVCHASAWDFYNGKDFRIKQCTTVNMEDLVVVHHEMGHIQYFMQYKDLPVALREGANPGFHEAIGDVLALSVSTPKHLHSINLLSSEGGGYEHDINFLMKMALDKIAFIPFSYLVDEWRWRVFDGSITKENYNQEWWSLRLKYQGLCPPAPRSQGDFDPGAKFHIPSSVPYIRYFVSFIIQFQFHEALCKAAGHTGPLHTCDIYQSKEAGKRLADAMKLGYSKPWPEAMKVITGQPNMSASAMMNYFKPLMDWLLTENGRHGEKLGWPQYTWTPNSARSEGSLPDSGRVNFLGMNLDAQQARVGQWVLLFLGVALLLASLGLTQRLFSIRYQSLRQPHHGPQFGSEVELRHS

[2] = DRUGMATRIX: Potassium Channel [KATP] radioligand binding (ligand: [3H] Glyburide); format: cell membranes, Membrane; conditions: hit-t15; Not Active = under 50% inhibition at 10 µM
[3] = target: T2, Cysteinyl leukotriene receptor 1 (Homo sapiens, UniProt Q9Y271); format: cell membranes, CHO-K1, Membrane; conditions: cho-k1; further: in other assays of this panel Not Active means under 50% inhibition at 10 µM
T2 sequence (Q9Y271 whole entry): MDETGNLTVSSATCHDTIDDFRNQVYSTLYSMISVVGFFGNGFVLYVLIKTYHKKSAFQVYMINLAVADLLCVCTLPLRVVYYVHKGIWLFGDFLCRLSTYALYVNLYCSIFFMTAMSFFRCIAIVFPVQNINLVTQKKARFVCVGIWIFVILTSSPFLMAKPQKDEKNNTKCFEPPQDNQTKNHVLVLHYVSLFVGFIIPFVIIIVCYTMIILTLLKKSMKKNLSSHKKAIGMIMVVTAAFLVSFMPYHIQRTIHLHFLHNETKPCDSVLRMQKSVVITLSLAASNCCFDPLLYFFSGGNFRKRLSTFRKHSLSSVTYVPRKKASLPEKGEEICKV

[4] = DRUGMATRIX: beta-Lactamase enzyme inhibition (substrate: Nitrocefin); set-up: species or system Bacillus cereus; conditions: Not Active = under 50% inhibition at 10 µM
[5] = target: Sodium-dependent dopamine transporter (Homo sapiens, UniProt Q01959); test: DRUGMATRIX: Dopamine Transporter radioligand binding (ligand: [125I] RTI-55); format: cell membranes, CHO-K1, Membrane; conditions: Not Active = under 50% inhibition at 10 µM
Sodium-dependent dopamine transporter, sequence (Q01959 whole entry): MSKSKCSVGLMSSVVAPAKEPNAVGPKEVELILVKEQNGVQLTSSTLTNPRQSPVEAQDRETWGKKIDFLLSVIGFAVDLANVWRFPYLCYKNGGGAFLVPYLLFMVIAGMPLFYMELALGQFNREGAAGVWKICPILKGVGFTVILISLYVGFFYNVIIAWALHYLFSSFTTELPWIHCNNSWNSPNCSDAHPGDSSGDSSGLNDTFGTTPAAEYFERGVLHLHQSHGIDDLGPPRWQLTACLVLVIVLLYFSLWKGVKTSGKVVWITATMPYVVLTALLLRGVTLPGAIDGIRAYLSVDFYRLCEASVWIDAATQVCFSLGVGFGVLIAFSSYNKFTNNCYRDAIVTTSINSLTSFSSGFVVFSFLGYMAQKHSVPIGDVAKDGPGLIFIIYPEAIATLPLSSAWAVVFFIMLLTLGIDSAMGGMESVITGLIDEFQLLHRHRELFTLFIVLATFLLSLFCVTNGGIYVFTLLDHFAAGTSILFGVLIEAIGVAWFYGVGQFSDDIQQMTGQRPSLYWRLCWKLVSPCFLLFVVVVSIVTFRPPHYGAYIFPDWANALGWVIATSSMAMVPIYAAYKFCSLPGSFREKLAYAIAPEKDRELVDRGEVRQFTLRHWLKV

[6] = DRUGMATRIX: Glutamate, NMDA, Phencyclidine radioligand binding (ligand: [3H] TCP); format: cell membranes, Rattus norvegicus, Wistar, Cerebral cortex, Membrane; conditions: Not Active = under 50% inhibition at 10 µM
[7] = target: Voltage-gated inwardly rectifying potassium channel KCNH2 (Homo sapiens, UniProt Q12809); conditions: hek293; further: in other assays of this panel Not Active means under 50% inhibition at 10 µM
Voltage-gated inwardly rectifying potassium channel KCNH2, sequence (Q12809 whole entry): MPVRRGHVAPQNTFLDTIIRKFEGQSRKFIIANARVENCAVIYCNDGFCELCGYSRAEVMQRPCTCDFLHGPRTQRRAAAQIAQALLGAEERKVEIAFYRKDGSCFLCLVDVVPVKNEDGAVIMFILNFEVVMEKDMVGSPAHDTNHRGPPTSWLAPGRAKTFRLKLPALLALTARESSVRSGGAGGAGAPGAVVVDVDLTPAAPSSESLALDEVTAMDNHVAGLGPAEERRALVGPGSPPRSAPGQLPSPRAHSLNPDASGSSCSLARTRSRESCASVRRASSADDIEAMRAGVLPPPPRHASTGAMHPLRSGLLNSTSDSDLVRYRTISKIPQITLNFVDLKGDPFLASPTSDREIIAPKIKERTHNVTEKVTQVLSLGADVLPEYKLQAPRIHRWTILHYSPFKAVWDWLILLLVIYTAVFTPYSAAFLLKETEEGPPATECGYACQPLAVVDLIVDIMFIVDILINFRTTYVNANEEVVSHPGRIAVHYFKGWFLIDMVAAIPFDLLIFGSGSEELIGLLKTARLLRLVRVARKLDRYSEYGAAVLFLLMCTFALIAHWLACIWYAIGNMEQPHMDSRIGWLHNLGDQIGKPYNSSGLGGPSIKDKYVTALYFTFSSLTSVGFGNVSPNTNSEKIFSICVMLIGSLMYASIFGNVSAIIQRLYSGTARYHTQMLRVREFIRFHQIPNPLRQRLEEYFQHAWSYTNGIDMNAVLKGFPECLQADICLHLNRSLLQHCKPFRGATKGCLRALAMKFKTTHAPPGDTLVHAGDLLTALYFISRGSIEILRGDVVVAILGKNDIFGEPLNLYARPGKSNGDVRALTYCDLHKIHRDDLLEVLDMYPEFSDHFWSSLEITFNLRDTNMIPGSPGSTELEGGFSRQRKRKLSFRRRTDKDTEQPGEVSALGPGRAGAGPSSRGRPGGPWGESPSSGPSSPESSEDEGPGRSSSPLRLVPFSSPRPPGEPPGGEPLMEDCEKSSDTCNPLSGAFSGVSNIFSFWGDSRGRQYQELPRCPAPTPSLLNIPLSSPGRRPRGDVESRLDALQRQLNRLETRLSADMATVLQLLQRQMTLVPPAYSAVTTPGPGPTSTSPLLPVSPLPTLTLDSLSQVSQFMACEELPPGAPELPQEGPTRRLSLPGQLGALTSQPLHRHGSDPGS

[8] = DRUGMATRIX: Glutamate, NMDA, Agonism radioligand binding (ligand: [3H] CGP-39653); format: cell membranes, Rattus norvegicus, Wistar, Cerebral cortex, Membrane; conditions: Not Active = under 50% inhibition at 10 µM
[9] = DRUGMATRIX: Purinergic P2X radioligand binding (ligand: [3H] alpha, beta-Methylene-ATP); format: cell membranes, Oryctolagus cuniculus, New Zealand albino, Urinary bladder, Membrane; conditions: Not Active = under 50% inhibition at 10 µM
[10] = DRUGMATRIX: Interleukin IL-1 radioligand binding (ligand: [125I] interleukin 1beta); format: cell membranes, Membrane; conditions: nih3t3; Not Active = under 50% inhibition at 10 µM
[11] = target: T3, Alpha-1A adrenergic receptor (Rattus norvegicus, UniProt P43140); test: DRUGMATRIX: Alpha-1A adrenergic receptor radioligand binding (ligand: prazosin); format: cell membranes, Wistar, Submaxillary gland, Membrane; conditions: Not Active = under 50% inhibition at 10 µM
T3 sequence (P43140 whole entry): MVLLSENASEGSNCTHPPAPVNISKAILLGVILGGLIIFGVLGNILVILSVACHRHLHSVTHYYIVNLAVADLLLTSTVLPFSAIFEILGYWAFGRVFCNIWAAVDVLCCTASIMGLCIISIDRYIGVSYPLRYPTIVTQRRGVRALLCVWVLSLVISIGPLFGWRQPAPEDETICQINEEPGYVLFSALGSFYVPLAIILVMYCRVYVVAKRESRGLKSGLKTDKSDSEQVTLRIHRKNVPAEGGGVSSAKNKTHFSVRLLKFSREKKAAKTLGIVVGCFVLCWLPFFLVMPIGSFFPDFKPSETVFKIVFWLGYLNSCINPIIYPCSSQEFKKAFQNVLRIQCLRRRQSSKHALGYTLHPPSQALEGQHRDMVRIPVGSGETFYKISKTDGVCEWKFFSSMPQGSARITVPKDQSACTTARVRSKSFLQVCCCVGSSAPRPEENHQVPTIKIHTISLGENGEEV

Cytochrome P450 3A4 = Cytochrome P450 3A4 (Homo sapiens, UniProt P08684); conditions: bti-tn-5b1-4; further: in other assays of this panel Not Active means under 50% inhibition at 10 µM
Cytochrome P450 3A4, sequence (P08684 whole entry): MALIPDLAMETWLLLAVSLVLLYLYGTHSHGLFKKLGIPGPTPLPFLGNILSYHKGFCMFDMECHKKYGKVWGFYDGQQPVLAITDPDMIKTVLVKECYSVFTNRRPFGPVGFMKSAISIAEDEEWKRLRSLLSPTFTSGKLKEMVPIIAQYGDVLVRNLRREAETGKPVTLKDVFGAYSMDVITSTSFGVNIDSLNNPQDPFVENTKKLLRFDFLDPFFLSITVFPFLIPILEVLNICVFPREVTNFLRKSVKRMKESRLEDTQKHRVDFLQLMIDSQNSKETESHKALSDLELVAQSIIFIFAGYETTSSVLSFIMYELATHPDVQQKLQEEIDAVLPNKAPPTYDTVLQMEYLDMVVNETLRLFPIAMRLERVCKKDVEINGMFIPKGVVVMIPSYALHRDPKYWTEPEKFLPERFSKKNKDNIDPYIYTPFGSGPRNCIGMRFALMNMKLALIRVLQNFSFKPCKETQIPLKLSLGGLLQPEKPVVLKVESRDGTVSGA

Compound: CN1C[C@H](C(=O)N[C@]2(C)O[C@@]3(O)[C@@H]4CCCN4C(=O)[C@H](Cc4ccccc4)N3C2=O)C=C2c3cccc4[nH]cc(c34)C[C@H]21 [ERGOTAMINE]
- IC50 [1]: Not Active
- IC50 [2]: Not Active
- Ki [2]: Not Active
- IC50 [3]: Not Active
- IC50 [4]: Not Active
- Ki [4]: Not Active
- IC50 ([5]; cho-k1): Not Active
- IC50 [6]: Not Active
- Ki [6]: Not Active
- IC50 [7]: Not Active
- Ki [7]: Not Active
- IC50 [8]: Not Active
- Ki [8]: Not Active
- IC50 [9]: Not Active
- Ki [9]: Not Active
- IC50 [10]: Not Active
- Ki [10]: Not Active
- IC50 ([11]; read-out: IC50): 8.06 nM
- Ki ([11]; read-out: Ki): 3.26 nM

Compound: C=C1[C@@H]2CCC3[C@@](CC[C@@H]4[C@H](C(=O)O)C[C@@H](O[C@@H]5O[C@H](CO)[C@@H](OS(=O)(=O)[O-])[C@H](OS(=O)(=O)[O-])[C@H]5OC(=O)CC(C)C)C[C@@]34C)(C2)[C@@H]1O.[K+].[K+] (some centres undefined) [ATRACTYLOSIDE]
- IC50 [1]: Not Active
- IC50 (Cytochrome P450 3A4): Not Active
- Ki (Cytochrome P450 3A4): Not Active
- IC50 [2]: Not Active
- Ki [2]: Not Active
- IC50 [3]: Not Active
- IC50 [4]: Not Active
- Ki [4]: Not Active
- IC50 ([5]; cho-k1): Not Active
- IC50 [6]: Not Active
- Ki [6]: Not Active
- IC50 [7]: Not Active
- Ki [7]: Not Active
- IC50 [8]: Not Active
- Ki [8]: Not Active
- IC50 [9]: Not Active
- Ki [9]: Not Active
- IC50 [10]: Not Active
- Ki [10]: Not Active
- IC50 [11]: Not Active

Compound: CCCCCCCCCc1ccc(O)cc1 [4-NONYLPHENOL]
- IC50 [1]: Not Active
- IC50 (Cytochrome P450 3A4): Not Active
- Ki (Cytochrome P450 3A4): Not Active
- IC50 [2]: Not Active
- Ki [2]: Not Active
- IC50 [3]: Not Active
- IC50 [4]: Not Active
- Ki [4]: Not Active
- IC50 ([5]; read-out: IC50): 1650 nM
- Ki ([5]; read-out: Ki): 1310 nM
- IC50 [6]: Not Active
- Ki [6]: Not Active
- IC50 [7]: Not Active
- Ki [7]: Not Active
- IC50 [8]: Not Active
- Ki [8]: Not Active
- IC50 [9]: Not Active
- Ki [9]: Not Active
- IC50 [10]: Not Active
- Ki [10]: Not Active
- IC50 [11]: Not Active

Compound: N#C[C@H](O[C@@H]1O[C@H](CO[C@@H]2O[C@H](CO)[C@@H](O)[C@H](O)[C@H]2O)[C@@H](O)[C@H](O)[C@H]1O)c1ccccc1 [AMYGDALIN]
- IC50 [1]: Not Active
- IC50 (Cytochrome P450 3A4): Not Active
- Ki (Cytochrome P450 3A4): Not Active
- IC50 [2]: Not Active
- Ki [2]: Not Active
- IC50 [3]: Not Active
- IC50 [4]: Not Active
- Ki [4]: Not Active
- IC50 ([5]; cho-k1): Not Active
- IC50 [6]: Not Active
- Ki [6]: Not Active
- IC50 [7]: Not Active
- Ki [7]: Not Active
- IC50 [8]: Not Active
- Ki [8]: Not Active
- IC50 [9]: Not Active
- Ki [9]: Not Active
- IC50 [10]: Not Active
- Ki [10]: Not Active
- IC50 [11]: Not Active

Compound: GOLD SODIUM THIOMALATE
- IC50 [1]: Not Active
- Ki [1]: Not Active
- IC50 (Cytochrome P450 3A4): Not Active
- Ki (Cytochrome P450 3A4): Not Active
- IC50 [2]: Not Active
- Ki [2]: Not Active
- IC50 [3]: Not Active
- Ki [3]: Not Active
- IC50 [4]: Not Active
- Ki [4]: Not Active
- IC50 ([5]; cho-k1): Not Active
- Ki ([5]; cho-k1): Not Active
- IC50 [6]: Not Active
- Ki [6]: Not Active
- IC50 [7]: Not Active
- Ki [7]: Not Active
- IC50 [8]: Not Active
- Ki [8]: Not Active
- IC50 [9]: Not Active
- Ki [9]: Not Active
- IC50 [10]: Not Active
- Ki [10]: Not Active
- IC50 [11]: Not Active
- Ki [11]: Not Active

Compound: CCCC[C@@H](CC)COC(=O)c1ccccc1C(=O)OC[C@@H](CC)CCCC [BIS(2-ETHYLHEXYL)PHTHALATE]
- IC50 [1]: Not Active
- IC50 (Cytochrome P450 3A4): Not Active
- Ki (Cytochrome P450 3A4): Not Active
- IC50 [2]: Not Active
- Ki [2]: Not Active
- IC50 [3]: Not Active
- IC50 [4]: Not Active
- Ki [4]: Not Active
- IC50 ([5]; cho-k1): Not Active
- IC50 [6]: Not Active
- Ki [6]: Not Active
- IC50 [7]: Not Active
- Ki [7]: Not Active
- IC50 [8]: Not Active
- Ki [8]: Not Active
- IC50 [9]: Not Active
- Ki [9]: Not Active
- IC50 [10]: Not Active
- Ki [10]: Not Active
- IC50 [11]: Not Active

Compound: C=C(C)[C@@H]1[C@H]2OC(=O)[C@@H]1[C@]1(O)C[C@H]3O[C@]34C(=O)O[C@H]2[C@]14C [PICROTOXININ]
- IC50 [1]: Not Active
- IC50 (Cytochrome P450 3A4): Not Active
- Ki (Cytochrome P450 3A4): Not Active
- IC50 [2]: Not Active
- Ki [2]: Not Active
- IC50 [3]: Not Active
- IC50 [4]: Not Active
- Ki [4]: Not Active
- IC50 ([5]; cho-k1): Not Active
- IC50 [6]: Not Active
- Ki [6]: Not Active
- IC50 [7]: Not Active
- Ki [7]: Not Active
- IC50 [8]: Not Active
- Ki [8]: Not Active
- IC50 [9]: Not Active
- Ki [9]: Not Active
- IC50 [10]: Not Active
- Ki [10]: Not Active
- IC50 [11]: Not Active
